Laboratory results reported in patent US20260314597A1, “A NOVEL APPROACH TO INTERFERE IN THE PHENYLPROPANOID BIOSYNTHETIC PATHWAY TO REDUCE PINK-RIB DISORDER IN FRESH LETTUCE” (University of Florida Research Foundation, Inc., priority 2022, published 2026).
“Also recorded” adds a separate entry of the source.

Legend:
[1] = test system: iceberg and Romaine lettuce midribs; experiment: Objective pink rib severity: a* value by RGB image analysis of cut sites; type: in vivo
Source text: (§1) In all tests, experimental setup began immediately upon arrival to the laboratory. 90 outer leaves were randomly selected from 18 to 22 lettuce heads that met commercial and damage-free quality standards. A midrib segment (12.5 cm) was excised from the center of each leaf and excess leaf blade tissue was trimmed parallel to the midrib. This procedure was adapted from the wounding procedure of Cantwell (2016). Each midrib was then partially sliced transversally at 1.3-cm increments along the midrib. Midribs (n=15) were immediately immersed for 30 s in one of five treatment solutions: deionized water (wounded control), L-cysteine (4.1 mM), naringenin (1.8 mM) with 20% dimethyl sulfoxide (DMSO), serotonin (2.8 or 5.7 mM) or melatonin (4.3 mM) with 0.50% DMSO. Immediately following immersion, the midribs for each treatment were patted dry using paper towels and placed (n=5) in a breathable, high-density polyethylene bag (n=3) (Narrow Profile Produce Bags [14×18 inches] Model No. S-19156, Uline®, Pleasant Prairie, WI). Unwounded control midribs were stored in the same manner. To allow for direct comparison, each cut site on each midrib was assigned an initial discoloration value on day 1 based on the coloration of the rib. Samples were stored at 5° C. with 95-98% relative humidity (RH) for 5 d, simulating commercial storage.
Objective evaluations were also made after 1, 3, and 5 d by capturing an image of each wounded midrib using a digital camera (Nikon D5200, Nikon, Melville, NY, USA) under full spectrum LED lighting (Sunco Lighting, Valencia, CA, USA) with 4100 Lumens at a distance of 1.12 m. Only unwounded and treated (L-cysteine or melatonin) midribs from Test 1 were measured using this method. The camera settings were on manual mode ISO400, shutter speed 1/125, aperture 5.6, and no zoom or flash; distance from the tissue was approximately 18 inches. The white balance of the camera was set with a gray card prior to each imaging session. GNU Image Manipulation Program (GIMP, version 2.10.14; The GIMP Project c/o GNOME Foundation, Orinda, CA, USA) was used to isolate pixels from an area 1 mm in width along the length of each cut site. Because a cut site is required as a guide for pixel extraction, no data was collected from images of the unwounded midribs.
Isolated pixels were converted from the RGB to the L*a*b* color space (Commission Internationale de l'Elcairage) with the “convertColor” function in R version 4.0.0 (R Core Team, 2020), using Illuminant D65 as the white reference. The mean a* value was calculated for each group of isolated cut site pixels at each time point. In the L*a*b* color space, […] the degree of redness (+) or greenness (−); thus, the mean a* at each cut site quantified the severity of pink rib discoloration. R was also applied to subset the data, to ensure that the cut sites chosen for further analysis had similar initial color. The a* values ranged from −3 to 0 for iceberg lettuce and −6 to −3 for Romaine.
The imaging data (a* value), enzyme activity (PAL and PPO), and metabolite (chlorogenic acid) results were expressed as mean±standard error and analyzed by lettuce type (iceberg or Romaine). For imaging data, an unpaired t-test was used to identify differences within a treatment throughout storage and among treatment groups at each time point. Treatment groups were defined as wounded, unwounded, L-cysteine, and melatonin. […] Analyses of variance were performed for PAL, PPO, and metabolite analyses using SAS software (version 9.4; SAS Institute, Cary, NC) to identify differences among treatment groups. Differences among treatments groups were separated by Tukey's Honest Significant Difference (HSD) test with a confidence level of 95%. The correlation between visual rating and a* value was evaluated for significance via an F-test, from which the P-value of the correlation was calculated.

[2] = test system: iceberg and Romaine lettuce midribs; experiment: Visual (subjective) pink rib development in wounded, immersed lettuce midribs stored at 5° C.; type: in vivo; details: for effect on pink rib discoloration: iceberg and Romaine; for duration of inhibition of pink rib development: 30 s immersion, 5° C.
Experimental: Six preliminary experiments were performed to determine treatment conditions for the three final experiments reported here. It was determined that the method developed by Cantwell (2016) induced pink rib discoloration in lettuce midribs during storage at 5° C. via mimicking mechanical damage and was, therefore, selected for use in all preliminary and final tests. […] Concentrations evaluated were: L-cysteine (0.4, 0.8, 2.1, 4.1, 8.3 mM), naringenin (0.2, 0.4, 0.9, 1.8, 3.7 mM), serotonin (2.8, 5.7 mM), and melatonin (0.2, 0.4, 1.1, 2.2, 4.3 mM) (data not presented). […] Therefore, this study employed the one or two concentrations for each compound with the greatest potential efficacy in three independent tests, Test 1 to 3 (Table 1).
For Test 1, the evaluations for pink rib development, protein quantification, and enzyme activity were conducted with Romaine and iceberg lettuce heads (36 heads per type; cultivars unknown) purchased (February 2020) upon arrival at a local grocery store in Gainesville, FL, and immediately transported to the Postharvest Horticulture Laboratory at the University of Florida in Gainesville, FL. For Test 2, metabolite extraction and detection were conducted with commercially grown, harvested, and cooled Romaine (‘Tall Guzmaine’) and iceberg (‘Chosen’) lettuce (December 2020) grown in Belle Glade, FL. For Test 3, untargeted metabolomics was performed using commercially grown, harvested, and cooled Romaine (‘Manatee’) lettuce grown in Belle Glade, FL (April 2021). To keep the lettuce head samples cool while preventing freeze damage during transport, a 3- to 6-inch layer of crushed ice was placed on the bottom of each 114-L cooler. A piece of waxed, corrugated fiberboard was placed on top of the ice prior to packing with the lettuce samples for transport the same day to the Postharvest Horticulture Laboratory in Gainesville (approximately 4 h distant).
as §1
All chemicals were of laboratory or reagent grade from Alfa Aesar (Thermo Fisher Scientific, Ward Hill, MA, USA) or Phyto Technology Laboratories (Shawnee Mission, KS, USA). L-cysteine (4.1 mM) solution was prepared by dissolving […] in 100 ml deionized water. Naringenin (1.8 mM) solution was prepared by dissolving […] in 20 mL of DMSO and diluting to a 100 mL volume with deionized water. A stock solution of serotonin (5.7 mM) was prepared by dissolving 100 mg of serotonin in 100 ml of deionized water; a second solution of serotonin (2.8 mM) was prepared by diluting the stock solution two-fold with deionized water. […]

Row | Compound | change of a* value ([1]; L-cysteine 4.1 mM, Romaine, after 3 d (P=0.0242)) | change of a* value ([1]; L-cysteine 4.1 mM, iceberg, after 3 d (P=0.0242)) | change of a* value ([1]; L-cysteine 4.1 mM, iceberg, after 5 d (P=0.00059)) | effect on pink rib discoloration ([2]; L-cysteine 4.1 mM, up to 5 d at 5° C., vs wounded control) | change of a* value ([1]; melatonin 4.3 mM, Romaine, between days 3 and 5) | a* value versus control ([1]; melatonin 4.3 mM, Romaine, day 5, control mean 1.49) | mean a* value ([1]; melatonin 4.3 mM, Romaine, day 5 at 5° C.) | change of a* value ([1]; melatonin 4.3 mM, iceberg, throughout 5 d storage) | a* values versus control treatments, overall ([1]; melatonin, iceberg and Romaine) | duration of inhibition of pink rib development ([2]; melatonin 4.3 mM, Romaine, vs wounded control) [days] | duration of inhibition of pink rib development ([2]; melatonin 4.3 mM, iceberg, vs wounded control) [days] | pink rib discoloration (visual) ([2]; melatonin 4.3 mM, Romaine, over 5 d at 5° C. (P=0.0058)) | effect on pink rib discoloration ([2]; melatonin 4.3 mM, 5 d at 5° C., vs controls)
1 | N[C@@H](CS)C(=O)O [L-cysteine] | increase | increased | increased | negligible effect on reducing pink rib; also recorded: equal or greater discoloration; also recorded: significantly higher discoloration than the control after 5 d; also recorded: ineffective in reducing pink rib; also recorded: neither PPO activity nor pink rib expression were reduced | – | – | – | – | – | – | – | – | –
2 | COc1ccc2[nH]cc(CCNC(C)=O)c2c1 [melatonin] | – | – | – | – | increasing | no longer significantly different | −0.67 | did not increase throughout storage | significantly lower a* values | 3 | 5 | slight (2=slight) | equal to or similar to unwounded controls; also recorded: dramatically less pink rib discoloration
